Columns and labels:
Type in all cases: functional, cell-based
DU-145 = experiment: Antiproliferative activity against human DU145 cells assessed as viable cells after 48 hrs by MTT assay; conditions: DU-145, 48 h
MCF7 = experiment: Antiproliferative activity against human MCF7 cells assessed as viable cells after 48 hrs by MTT assay; conditions: MCF7, 48 h
NCI-H460 = experiment: Antiproliferative activity against human NCI-H460 cells assessed as viable cells after 48 hrs by MTT assay; conditions: NCI-H460, 48 h
BXPC-3 = experiment: Antiproliferative activity against human BxPC3 cells assessed as viable cells after 48 hrs by MTT assay; conditions: BXPC-3, 48 h

SMILES	IC50 (DU-145)	IC50 (MCF7)	IC50 (NCI-H460)	IC50 (BXPC-3)
O=C1N[C@H]2[C@H](O)[C@H](O)[C@@H](O)[C@H](CO)[C@@H]2c2cc3c(cc21)OCO3	1100 nM	860 nM	400 nM	770 nM
CC(=O)OC[C@H]1[C@H](O)[C@@H](O)[C@@H](O)[C@@H]2NC(=O)c3cc4c(cc3[C@@H]12)OCO4	720 nM	1810 nM	530 nM	340 nM
O=C1N[C@@H]2C(=C[C@H](O)[C@@H](O)[C@H]2O)c2cc3c(c(O)c21)OCO3 [NARCICLASINE]	50 nM	40 nM	40 nM	50 nM

Further lines, results first:

IC50 (DU-145)	IC50 (MCF7)	IC50 (NCI-H460)	IC50 (BXPC-3)	SMILES
90 nM	240 nM	90 nM	220 nM	O=C1N[C@H]2[C@H](O)[C@H](O)[C@@H](O)[C@H](CO)[C@@H]2c2cc3c(c(O)c21)OCO3
60 nM	520 nM	70 nM	70 nM	CC(=O)OC[C@H]1[C@H](O)[C@@H](O)[C@@H](O)[C@@H]2NC(=O)c3c(cc4c(c3O)OCO4)[C@@H]12
